Assay results taken from patent US7816406B2, “Quinolone analogs” (Cylene Pharmaceuticals, Inc., priority 2004, dated 2010).
Values belong to the compound of their own block, whether it stands above or below them.

Legend:
PC3 = test: TumorCell MeanTimeSurvival (Alamar Blue Stain), PC3; type: cell-based; details: Homo sapiens, PC-3
Hela = test: TumorCell MeanTimeSurvival (Alamar Blue Stain), Hela; type: cell-based; details: Homo sapiens
HCT-116 [1] = test: TumorCell MeanTimeSurvival (Alamar Blue Stain), HCT-116; type: cell-based; details: Homo sapiens
MiaPaca = test: MTS cell proliferation assay, MiaPaca; type: cell-based; details: Table 1C
Method: (§1) MTS assays. Antiproliferative effects of anticancer drugs are tested by the CellTiter 96 AQueous assay (Promega, WI), which is a colorimetric assay for determining the number of viable cells. (See, e.g., Wang, L., et al., Methods Cell Sci (1996) 18:249-255). Generally, cells (2,000 to 5,000 cells/well) are seeded on 96 well flat bottom plates (Corning, NY) in 100 μl of culture medium without any anticancer drug on day 0, and the culture medium is exchanged for that contained anticancer drugs at various concentrations on day 1. After incubation for 3 days under normal growth conditions (on day 4), the monolayers are washed once in PBS, and the medium is switched to 100 μl of PBS in each of the 96 well plate. After mixing MTS and PMS at the ratio of 20:1, 20 μl of MTS/PMS solution is added to each of the 96 well plate and incubated for 4 hours in a humidified atmosphere of 5% CO2 at 37° C. The absorbance is read at 490 nm using FLUOstar Galaxy 96 well plate reader (BMG Labtechnologies, Germany).

HCT-116 [2] = test: MTS cell proliferation assay, HCT-116; type: cell-based; details: Homo sapiens, HCT-116, HCT-116, Table 1A; read-out: HCT-116 MTs
Method: as §1

c-Myc template DNA = test: Quadruplex binding assay (STOP / Taq polymerase arrest, capillary electrophoresis); type: biochemical; details: concentration at which 50% of the DNA was arrested (arrested:full-length 1:1)
Method: Generally, a 5′-fluorescent-labeled (FAM) primer (P45, 15 nM) was mixed with template DNA (15 nM) in a Tris-HCL buffer (15 mM Tris, pH 7.5) containing 10 mM MgCl2, 0.1 mM EDTA and 0.1 mM mixed deoxynucleotide triphosphates (dNTP's). In one example, the FAM-P45 primer (5′ -6FAM-[…] CAATT-3′) (SEQ ID NO. 17) and the c-Myc template DNA (5′-[…] […] […]-3′) (SEQ ID NO. 18) were synthesized and HPLC purified by Applied Biosystems. The mixture was denatured at 95° C. for 5 minutes and, after cooling down to room temperature, was incubated at 37° C. for 15 minutes.
After cooling down to room temperature, 1 mM KCl2 and the test compound (various concentrations) were added and the mixture incubated for 15 minutes at room temperature. The primer extension was performed by adding 10 mM KCl and Taq DNA Polymerase (2.5 U/reaction, Promega) and incubating at 70° C. for 30 minutes. The reaction was stopped by adding 1 μl of the reaction mixture to 10 μl Hi-Di Formamide mixed and 0.25 μl LIZ120 size standard. Hi-Di Formamide and LIZ120 size standard were purchased from Applied Biosystems. The partially extended quadruplex arrest product was between 61 or 62 bases long and the full-length extended product was 99 bases long. The products were separated and analyzed using capillary electrophoresis. Capillary electrophoresis was performed using an ABI PRISM 3100-Avant Genetic Analyzer. The assay was performed using compounds described above and results are shown in Table 1. μM concentrations reported in Table 1 are concentrations at which 50% of the DNA was arrested in the assay (ie., the ratio of shorter partially extended DNA (arrested DNA) to full-length extended DNA is 1:1).
Stop Assays. Stop assays are high throughput, first-pass screens for detecting drugs that bind to and stabilize the target G-quadruplex. Generally, DNA template oligonucleotide is created, which contains the nucleotide sequence of the “target” quadruplex against which drug screening is desired. A fluorescently labeled primer DNA is then annealed to the 3′ end of the template DNA. A DNA polymerase such as Taq polymerase is then introduced to synthesize a complementary strand of DNA by extending from the fluorescently labeled primer. When the progress of the Taq polymerase is unhindered, it synthesizes a full-length copy of the template. […] If, however, the test drug selectively binds to and stabilizes the quadruplex, the progress of polymerase arrests only at the quadruplex, and a characteristic “Stop Product” is synthesized.
Compounds are initially screened at a single concentration, and “hits” are re-assayed over a range of doses to determine an IC50 value (i.e., the concentration of drug required to produce an arrest product/full-length product ratio of 1:1). These products are visualized by capillary electrophoresis.

[3] = Homo sapiens, MIA PaCa-2, M CELL MiaPaca

Compound: O=C(NCCN1CCCC1)c1c(=O)c2cc(F)c(SCCc3cnccn3)cc2n2c1sc1ccccc12 [drawing 472]
IC50 (PC3): 520 nM
IC50 (Hela): 2700 nM
IC50 (HCT-116 [1]): 570 nM

Compound: CN1CCCC1CCNC(=O)c1c(=O)c2cc(F)c(SCCc3cnccn3)cc2n2c1sc1ccccc12 (stereo not shown) [drawing 471]
IC50 (PC3): 2700 nM
IC50 (Hela): 2800 nM
IC50 (HCT-116 [1]): 1100 nM

Compound: CC(=O)NC1CCN(c2ccnc3c2c(=O)c(C(=O)NCCN2CCCC2)c2sc4ccccc4n23)C1 (stereo not shown) [drawing 147]
IC50 (MiaPaca; [3]): 700 nM

Compound: Nc1ccccc1Sc1c(F)cc2c(=O)c(C(=O)NCCN3CCCC3)c3sc4ccccc4n3c2c1F
IC50 (HCT-116 [2]): 2400 nM
IC50 (c-Myc template DNA): 15 µM

Compound: O=C(NCCN1CCCC1)c1c(=O)c2c(N3CCCC3)ccnc2n2c1sc1ccccc12 [drawing 145]
IC50 (MiaPaca; [3]): 2300 nM

Compound: Cn1c2ccccc2n2c3cc(SCCc4cnccn4)c(F)cc3c(=O)c(C(=O)NCCN3CCCC3)c12
IC50 (HCT-116 [2]): 300 nM
IC50 (c-Myc template DNA): 15 µM

Compound: CN1CCCC1CCNC(=O)c1c(=O)c2cc(F)c(SCCc3cnccn3)cc2n2c3ccccc3n(C)c12 (stereo not shown)
IC50 (HCT-116 [2]): 2300 nM
IC50 (c-Myc template DNA): 15 µM

Other lines, results leading:

IC50 (MiaPaca; [3]): 6600 nM
Compound: O=C1CN(c2ccnc3c2c(=O)c(C(=O)NCCN2CCOCC2)c2sc4ccccc4n23)CCN1 [drawing 234]

IC50 (MiaPaca; [3]): 10 nM
Compound: CN1CCCC1CCNC(=O)c1c(=O)c2ccc(N3CCNCC3)nc2n2c1sc1ccccc12 (stereo not shown) [drawing 358]

IC50 (MiaPaca; [3]): 110 nM
Compound: CC(C)Nc1ncc2c(=O)c(C(=O)NCCN3CCCC3)c3sc4ccccc4n3c2n1 [drawing 330]

IC50 (MiaPaca; M CELL MiaPaca): 300 nM
Compound: O=C(NCCN1CCCC1)c1c(=O)c2cnc(N3CCCC3)nc2n2c1sc1ccc(Cl)cc12 [drawing 213]

IC50 (MiaPaca; [3]): 2500 nM
Compound: O=C(NCCN1CCCC1)c1c(=O)c2ccc(N3CCN(c4ncccn4)CC3)nc2n2c1sc1ccc(Cl)cc12 [drawing 286]
